Experimental data: US20210045385A1, “PYRIDAZINONE-SUBSTITUTED KETOXIMES AS HERBICIDES” (FMC Corporation, priority 2018, published 2021)

Tests used:
Type in all cases: in vivo
kochia (Bassia scoparia) [1] = test: Test C preemergence, visual plant response rating; settings: 1000 g ai/ha
Source text: (§1) Seeds of plant species selected from barnyardgrass (Echinochloa crus-galli), kochia (Bassia scoparia), ragweed (common ragweed, Ambrosia artemisiifolia), Italian ryegrass (Lolium mutiflorum), foxtail, giant (giant foxtail, Setaria faberi), foxtail, green (green foxtail, Setaria viridis), and pigweed (Amaranthus retroflexus) were planted into a blend of loam soil and sand and treated preemergence with a directed soil spray using test chemicals formulated in anon-phytotoxic solvent mixture which included a surfactant.
(§2) At the same time, plants selected from these weed species and also wheat (Triticum aestivum), corn (Zea mays), blackgrass (Alopecurus myosuroides), and galium (catchweed bedstraw, Galium aparine) were planted in pots containing the same blend of loam soil and sand and treated with post emergence applications of test chemicals formulated in the same manner. Plants ranged in height from 2 to 10 cm and were in the one- to two-leaf stage for the postemergence treatment. Treated plants and untreated controls were maintained in a greenhouse for approximately 10 d, after which time all treated plants were compared to untreated controls and visually evaluated for injury. Plant response ratings, summarized in Table C, are based on a 0 to 100 scale where 0 is no effect and 100 is complete control. A dash (-)response means no test result.

[2] = test system: ragweed (common ragweed, Ambrosia artemisiifolia); test: Test C preemergence, visual plant response rating; settings: 1000 g ai/ha
Source text: as §1, §2

[3] = test system: pigweed (Amaranthus retroflexus); test: Test C preemergence, visual plant response rating; settings: 1000 g ai/ha
Source text: as §1, §2

[4] = test system: Italian ryegrass (Lolium mutiflorum); test: Test C preemergence, visual plant response rating; settings: 1000 g ai/ha
Source text: as §1, §2

[5] = test system: barnyardgrass (Echinochloa crus-galli); test: Test C preemergence, visual plant response rating; settings: 1000 g ai/ha
Source text: as §1, §2

[6] = test system: foxtail, giant (giant foxtail, Setaria faberi); test: Test C preemergence, visual plant response rating; settings: 1000 g ai/ha
Source text: as §1, §2

kochia (Bassia scoparia) [7] = test: Test C postemergence, visual plant response rating; settings: Test C, postemergence, 1000 g ai/ha
Source text: as §1, §2

[8] = test system: galium (catchweed bedstraw, Galium aparine); test: Test C postemergence, visual plant response rating; settings: Test C, postemergence, 1000 g ai/ha
Source text: as §1, §2

corn (Zea mays) [9] = test: Test C postemergence, visual plant response rating; settings: Test C, postemergence, 1000 g ai/ha
Source text: as §1, §2

[10] = test system: ragweed (common ragweed, Ambrosia artemisiifolia); test: Test C postemergence, visual plant response rating; settings: Test C, postemergence, 1000 g ai/ha
Source text: as §1, §2

[11] = test system: pigweed (Amaranthus retroflexus); test: Test C postemergence, visual plant response rating; settings: Test C, postemergence, 1000 g ai/ha
Source text: as §1, §2

[12] = test system: Italian ryegrass (Lolium mutiflorum); test: Test C postemergence, visual plant response rating; settings: Test C, postemergence, 1000 g ai/ha
Source text: as §1, §2

[13] = test system: wheat (Triticum aestivum); test: Test C postemergence, visual plant response rating; settings: Test C, postemergence, 1000 g ai/ha
Source text: as §1, §2

[14] = test system: blackgrass (Alopecurus myosuroides); test: Test C postemergence, visual plant response rating; settings: Test C, postemergence, 1000 g ai/ha
Source text: as §1, §2

[15] = test system: barnyardgrass (Echinochloa crus-galli); test: Test C postemergence, visual plant response rating; settings: Test C, postemergence, 1000 g ai/ha
Source text: as §1, §2

[16] = test system: foxtail, giant (giant foxtail, Setaria faberi); test: Test C postemergence, visual plant response rating; settings: Test C, postemergence, 1000 g ai/ha
Source text: as §1, §2

[17] = test system: galium (catchweed bedstraw, Galium aparine); test: Test A postemergence, visual plant response rating; settings: Postemergence, 125 g ai/ha; 0 to 100 scale (0 no effect, 100 complete control)
Source text: (§3) Seeds of plant species selected from barnyardgrass (Echinochloa crus-galli), kochia (Kochia scoparia), ragweed (common ragweed, Ambrosia elatior), Italian ryegrass (Lolium multiflorum), foxtail, giant (giant foxtail, Setaria faberii), foxtail, green (green foxtail, Setaria viridis), and pigweed (Amaranthus retroflexus) were planted into a blend of loam soil and sand and treated preemergence with a directed soil spray using test chemicals formulated in a non-phytotoxic solvent mixture which included a surfactant.
as §2, with “postemergence” for “post emergence”, “days,” for “d,”, “A,” for “C,”, “(-) response” for “(-)response”

[18] = test system: Italian ryegrass (Lolium multiflorum); test: Test A postemergence, visual plant response rating; settings: Postemergence, 125 g ai/ha; 0 to 100 scale (0 no effect, 100 complete control)
Source text: as §3
as §2, with “postemergence” for “post emergence”, “days,” for “d,”, “A,” for “C,”, “(-) response” for “(-)response”

corn (Zea mays) [19] = test: Test A postemergence, visual plant response rating; settings: Postemergence, 125 g ai/ha; 0 to 100 scale (0 no effect, 100 complete control)
Source text: as §3
as §2, with “postemergence” for “post emergence”, “days,” for “d,”, “A,” for “C,”, “(-) response” for “(-)response”

[20] = test system: pigweed (Amaranthus retroflexus); test: Test A postemergence, visual plant response rating; settings: Postemergence, 125 g ai/ha; 0 to 100 scale (0 no effect, 100 complete control)
Source text: as §3
as §2, with “postemergence” for “post emergence”, “days,” for “d,”, “A,” for “C,”, “(-) response” for “(-)response”

[21] = test system: wheat (Triticum aestivum); test: Test A postemergence, visual plant response rating; settings: Postemergence, 125 g ai/ha; 0 to 100 scale (0 no effect, 100 complete control)
Source text: as §3
as §2, with “postemergence” for “post emergence”, “days,” for “d,”, “A,” for “C,”, “(-) response” for “(-)response”

[22] = test system: foxtail, giant (giant foxtail, Setaria faberii); test: Test A postemergence, visual plant response rating; settings: Postemergence, 125 g ai/ha; 0 to 100 scale (0 no effect, 100 complete control)
Source text: as §3
as §2, with “postemergence” for “post emergence”, “days,” for “d,”, “A,” for “C,”, “(-) response” for “(-)response”

[23] = test system: blackgrass (Alopecurus myosuroides); test: Test A postemergence, visual plant response rating; settings: Postemergence, 125 g ai/ha; 0 to 100 scale (0 no effect, 100 complete control)
Source text: as §3
as §2, with “postemergence” for “post emergence”, “days,” for “d,”, “A,” for “C,”, “(-) response” for “(-)response”

kochia (Kochia scoparia) [24] = test: Test A postemergence, visual plant response rating; settings: Postemergence, 125 g ai/ha; 0 to 100 scale (0 no effect, 100 complete control)
Source text: as §3
as §2, with “postemergence” for “post emergence”, “days,” for “d,”, “A,” for “C,”, “(-) response” for “(-)response”

[25] = test system: barnyardgrass (Echinochloa crus-galli); test: Test A postemergence, visual plant response rating; settings: Postemergence, 125 g ai/ha; 0 to 100 scale (0 no effect, 100 complete control)
Source text: as §3
as §2, with “postemergence” for “post emergence”, “days,” for “d,”, “A,” for “C,”, “(-) response” for “(-)response”

[26] = test system: ragweed (common ragweed, Ambrosia elatior); test: Test A postemergence, visual plant response rating; settings: Postemergence, 125 g ai/ha; 0 to 100 scale (0 no effect, 100 complete control)
Source text: as §3
as §2, with “postemergence” for “post emergence”, “days,” for “d,”, “A,” for “C,”, “(-) response” for “(-)response”

[27] = test system: Italian ryegrass (Lolium multiflorum); test: Test A preemergence, visual plant response rating; settings: 125 g ai/ha, preemergence; 0 to 100 scale, 0 no effect, 100 complete control
Source text: as §3
as §2, with “postemergence” for “post emergence”, “days,” for “d,”, “A,” for “C,”, “(-) response” for “(-)response”

[28] = test system: pigweed (Amaranthus retroflexus); test: Test A preemergence, visual plant response rating; settings: 125 g ai/ha, preemergence; 0 to 100 scale, 0 no effect, 100 complete control
Source text: as §3
as §2, with “postemergence” for “post emergence”, “days,” for “d,”, “A,” for “C,”, “(-) response” for “(-)response”

[29] = test system: foxtail, giant (giant foxtail, Setaria faberii); test: Test A preemergence, visual plant response rating; settings: 125 g ai/ha, preemergence; 0 to 100 scale, 0 no effect, 100 complete control
Source text: as §3
as §2, with “postemergence” for “post emergence”, “days,” for “d,”, “A,” for “C,”, “(-) response” for “(-)response”

kochia (Kochia scoparia) [30] = test: Test A preemergence, visual plant response rating; settings: 125 g ai/ha, preemergence; 0 to 100 scale, 0 no effect, 100 complete control
Source text: as §3
as §2, with “postemergence” for “post emergence”, “days,” for “d,”, “A,” for “C,”, “(-) response” for “(-)response”

[31] = test system: barnyardgrass (Echinochloa crus-galli); test: Test A preemergence, visual plant response rating; settings: 125 g ai/ha, preemergence; 0 to 100 scale, 0 no effect, 100 complete control
Source text: as §3
as §2, with “postemergence” for “post emergence”, “days,” for “d,”, “A,” for “C,”, “(-) response” for “(-)response”

[32] = test system: ragweed (common ragweed, Ambrosia elatior); test: Test A preemergence, visual plant response rating; settings: 125 g ai/ha, preemergence; 0 to 100 scale, 0 no effect, 100 complete control
Source text: as §3
as §2, with “postemergence” for “post emergence”, “days,” for “d,”, “A,” for “C,”, “(-) response” for “(-)response”

CO/N=C(/c1c(O)cnn(C)c1=O)c1cccc2ccccc12 [Compound 237]
Kochia plant response rating (0 to 100 scale) (kochia (Bassia scoparia) [1]): 30 | Ragweed plant response rating (0 to 100 scale) [2]: 20 | Pigweed plant response rating (0 to 100 scale) [3]: 90 | Ryegrass, Italian plant response rating (0 to 100 scale) [4]: 0 | Barnyardgrass plant response rating (0 to 100 scale) [5]: 0 | Foxtail, Giant plant response rating (0 to 100 scale) [6]: 60 | Kochia plant response rating (0 to 100 scale) (kochia (Bassia scoparia) [7]): 80 | Galium plant response rating (0 to 100 scale) [8]: 100 | Corn plant response rating (0 to 100 scale) (corn (Zea mays) [9]): 0 | Ragweed plant response rating (0 to 100 scale) [10]: 30 | Pigweed plant response rating (0 to 100 scale) [11]: 90 | Ryegrass, Italian plant response rating (0 to 100 scale) [12]: 10 | Wheat plant response rating (0 to 100 scale) [13]: 0 | Blackgrass plant response rating (0 to 100 scale) [14]: 10 | Barnyardgrass plant response rating (0 to 100 scale) [15]: 0 | Foxtail, Giant plant response rating (0 to 100 scale) [16]: 0

CC(C)O/N=C(/c1c(O)cnn(C)c1=O)c1cccc2ccccc12 [Compound 223]
Kochia plant response rating (0 to 100 scale) (kochia (Bassia scoparia) [1]): 0 | Ragweed plant response rating (0 to 100 scale) [2]: 20 | Pigweed plant response rating (0 to 100 scale) [3]: 100 | Ryegrass, Italian plant response rating (0 to 100 scale) [4]: 0 | Barnyardgrass plant response rating (0 to 100 scale) [5]: 0 | Foxtail, Giant plant response rating (0 to 100 scale) [6]: 0 | Kochia plant response rating (0 to 100 scale) (kochia (Bassia scoparia) [7]): 0 | Galium plant response rating (0 to 100 scale) [8]: 90 | Corn plant response rating (0 to 100 scale) (corn (Zea mays) [9]): 0 | Ragweed plant response rating (0 to 100 scale) [10]: 50 | Pigweed plant response rating (0 to 100 scale) [11]: 40 | Ryegrass, Italian plant response rating (0 to 100 scale) [12]: 0 | Wheat plant response rating (0 to 100 scale) [13]: 0 | Blackgrass plant response rating (0 to 100 scale) [14]: 0 | Barnyardgrass plant response rating (0 to 100 scale) [15]: 20 | Foxtail, Giant plant response rating (0 to 100 scale) [16]: 30

CO/N=C(\c1cc(C(F)(F)F)ccc1Cl)c1c(O)c(C)nn(C)c1=O [Compound 54]
Galium plant response rating [17]: 70 | Ryegrass, Italian plant response rating [18]: 40 | Corn plant response rating (corn (Zea mays) [19]): 10 | Pigweed plant response rating [20]: 60 | Wheat plant response rating [21]: 30 | Foxtail, Giant plant response rating [22]: 40 | Blackgrass plant response rating [23]: 40 | Kochia plant response rating (kochia (Kochia scoparia) [24]): 50 | Barnyardgrass plant response rating [25]: 30 | Ragweed plant response rating [26]: 60 | Ryegrass, Italian plant response rating [27]: 70 | Pigweed plant response rating [28]: 80 | Foxtail, Giant plant response rating [29]: 40 | Kochia plant response rating (kochia (Kochia scoparia) [30]): 0 | Barnyardgrass plant response rating [31]: 40 | Ragweed plant response rating [32]: 70
